According to patent publication EP2818471A1, “Nitrogen bicyclic compounds as inhibitors for Scyl1 and Grk5” (Max-Planck-Gesellschaft zur Förderung der Wissenschaften …, priority 2013, dated 2014):

Key:
C2C12 cells = assay: 2-NBDG glucose uptake by flow cytometry; conditions: C2C12, 1 h compound treatment; Figure 10
Protocol: Furthermore, as internal controls, samples of glucose free media, respectively glucose free media with test compound, were tested. Subsequently, cells were washed, trypsinized and harvested in ice-cold PBS before centrifuged at 1.6 x10^3 rpm at 4°C. Cells were analyzed by flow cytometry (FACS Calibur, BD Bioscience, respectively a BD Accuri® C6 Flow Cytometer).
To investigate the impact of the Grk5 inhibitors on Glucose uptake, cells were cultured 1 h in glucose free media supplied with 100 µM 2-NBDG at 37 °C and 5 % (v/v) CO2. Furthermore, as internal controls, samples of glucose free media, respectively glucose free media with test compounds, were measured. Fluorescence was analyzed by flow cytometer (FACS Calibur, BD Bioscience, respectively a BD Accuri® C6 Flow Cytometer).

beta-TC6 cells [1] = assay: Insulin HTRF assay, relative activity Ar normalized to sunitinib; format: cell-based; conditions: Mus musculus, normalized to positive control sunitinib (5 µM = 100%), Table 10
Summary of the method: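 beta-TC6 cells (15k/well) were seeded for 24 or 48 h, washed and exposed to test compound or sunitinib (5 µM f.c.) in induction buffer with 0.5% DMSO for 2, 3 or 4 h at 37°C. Secreted insulin in the supernatant was measured by two-antibody HTRF after 120 min at RT. Ar = (V − 0% control)/(100% control − 0% control) × 100.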

beta-TC6 cell system = assay: Comparison of insulin release with commercially available inhibitors, mouse/rat insulin ELISA; format: cell-based; conditions: 2 h; for effect on insulin release: concentration not given
Protocol: Based on literature references, several commercially available inhibitors were compared with compounds according to the invention. […] Cells were cultured for 24 h before treated with the inventive compounds and control inhibitors for 2 h at 37 °C and 5 % (v/v) CO2. Insulin in the supernatant was detected by mouse/rat insulin ELISA.

beta-TC6 = assay: MTT cytotoxicity assay (cell viability and proliferation); format: cell-based, mouse; conditions: beta-TC6, 72 h treatment, concentrations up to 10 µM
Protocol: Using a MTT approach, we determined the effect on cell viability and proliferation of beta-TC6 and C2C12 cells to display potential cytotoxicity of the compounds according to the invention in vitro after a 72 h treatment.
For MTT (3-(4,5-dimethylthiazol-2-yl)-2,5-diphenyl tetrazolium bromide) transformation, 1/5 of total volume of a 5 mg/mL MTT stock solution was added to the cells as well as control wells and incubated at 37 °C, 5 % CO2 (v/v) for 1 h. Then 1/2 of total volume of MTT-stop solution was added and plates were incubated overnight in the dark at 25 °C. The optical density (OD) was measured using a multiwell spectrophotometer at a wavelength of 570 nm.

beta-TC6 cells [2] = assay: Insulin release in low glucose medium, rat/mouse insulin ELISA; format: cell-based; conditions: low glucose 1.125 mM (20 mg/dL), 2 h, relative to DMSO control; Example 6, Figure 5
Protocol: (§1) In order to measure the insulin released upon compound treatment beta-TC6 insulinoma (mouse) and RIN-T2B-5AH (rat islet tumor subclone) cells were washed and incubated for 2 h in high (4.5 g/L) or low (1.125 g/L) glucose media at 37 °C. After incubation, the supernatant of the beta-TC6 insulinoma cells was diluted 1:20, whereas the supernatants of the RIN-T2B-5AH were diluted 1:10. The insulin release was measured with rat/mouse insulin ELISA (Merck Millipore Darmstadt, Cat. # EZRMI-13K) by following the manufacture's protocol. The enzyme activity of the horseradish peroxidase of the immobilized biotinylated antibodies was monitored spectrophotometrically by the increased absorbency at 490 nm, and corrected by the absorbency at 610 nm.
Hypoglycemia can cause impairment of cognitive function, motoric control or even consciousness. […] Therefore, we verified the glucose dependent insulin release in beta-TC6 cells using media with 1.125 mM (20 mg/dL) glucose. Cells were cultured for 24 h in a 96-well plate, washed with PBS and then appropriate media was replaced for 2 h at 37°C and 5 % (v/v) CO2. […] The enzyme activity of the horseradish peroxidase of the immobilized biotinylated antibodies was monitored spectrophotometrically by the increased absorbency at 490 nm, and corrected by the absorbency at 610 nm. […]

beta-TC6 cells [3] = assay: Insulin release in high glucose medium, rat/mouse insulin ELISA; format: cell-based; conditions: Mus musculus, Beta-TC6, 2 h, high glucose (4.5 g/L) DMEM, Example 9, Figure 6, ± SEM, read-out: increase of insulin release
Protocol: Cells were cultured overnight, washed with PBS and then treated with 5 µM of test compounds as well as non-inhibitor controls for 2 h in a high glucose (4.5 g/L) DMEM at 37°C and 5 % (v/v) CO2. Release of insulin was detected using a rat/mouse insulin ELISA.
as §1, with “After” for “In order to measure the insulin released upon compound treatment beta-TC6 insulinoma (mouse) and RIN-T2B-5AH (rat islet tumor subclone) cells were washed and incubated for 2 h in high (4.5 g/L) or low (1.125 g/L) glucose media at 37 °C. After”
Afterwards, the supernatant was analyzed for insulin using the rat/mouse insulin ELISA (Merck Millipore Darmstadt, Cat. # EZRMI-13K) by following the manufacture's protocol..
Cells were treated for 2 h in a high glucose (4.5 g/L) DMEM media at 37°C and 5 % (v/v) CO2. Insulin release was analyzed using the rat/mouse insulin ELISA.

[4] = Mus musculus, Beta-TC6, 5µM, DMSO = 0, Table 9

NC(=O)c1ccc(-c2cnc3ccc(Cc4ccccc4)nn23)cc1 [compound 2, 4-(6-benzylimidazo[1,2-b]pyridazin-3-yl)benzamide]
uptake of 2-NBDG compared with negative control background (C2C12 cells): significantly increased uptake of 2-NBDG | Emax (beta-TC6 cells [1]): 20 to 50% | activation at 5 µM (beta-TC6 cell system; [4]): 65.7%

CCCCNC(=O)NS(=O)(=O)c1ccc(C)cc1 [Tolbutamide, reference compound]
effect on insulin release (beta-TC6 cell system): no effect

CCN(CC)CCNC(=O)c1c(C)[nH]c(/C=C2\C(=O)Nc3ccc(F)cc32)c1C [Sunitinib, reference compound]
toxic effect (beta-TC6): toxic in lower concentrations | insulin release (beta-TC6 cells [2]): 0.77 ± 0.03 | Insulin Release [%] (beta-TC6 cell system; 5µM, DMSO = 0, Table 9, listed as Sutent): 93.35% | activation at 5 µM (beta-TC6 cell system; [4]): 93.3 ± 14.4%

COc1ccc(Cl)cc1C(=O)NCCc1ccc(S(=O)(=O)NC(=O)NC2CCCCC2)cc1 [Glibenclamide, reference compound]
effect on insulin release (beta-TC6 cell system): no effect

O=C1C(Cl)=C(N2C(=O)CCC2=O)C(=O)c2ccccc21 [MEK, reference compound]
activation at 10 µM (beta-TC6 cell system; Mus musculus, Beta-TC6, 10µM, DMSO = 0, Table 9): 67.3%

CC(=O)Nc1cc(-c2cccc(C(=O)NCCO)c2)cn2c(-c3ccc(F)cc3)cnc12 [Cpd c1, reference compound]
activation at 5 µM (beta-TC6 cells [3]): 1.3 ± 0.3%

c1csc(-c2cn3c(-c4ccc5c(c4)OCO5)cnc3cn2)c1 [compound 306, 3-(1,3-benzodioxol-5-yl)-6-(2-thienyl)imidazo[1,2-a]pyrazine]
Emax (beta-TC6 cells [1]): 50 to 100%

OCc1cccc(-c2cnc3cnc(-c4ccccc4)cn23)c1 [compound 376, [3-(6-phenylimidazo[1,2-a]pyrazin-3-yl)phenyl]methanol]
Emax (beta-TC6 cells [1]): 20 to 50%
